Experimental findings from PMC8213057, “Targeting ALK2: An Open Science Approach to Developing Therapeutics for the Treatment of Diffuse Intrinsic Pontine Glioma” (Journal of Medicinal Chemistry, 2020) are described below.

For one test, the target named is ABL2/ARG (Homo sapiens, UniProt P42684). Kind of test: biochemical. Conditions: read-out: % enzyme activity, 1 μM; Run 1, Run 2.
For a further test, the target named is FLT4/VEGFR3 (Homo sapiens, UniProt P35916). Kind of test: biochemical. To be noted: read-out: % enzyme activity, 1 μM; Run 1, Run 2.
FLT4/VEGFR3, sequence (P35916 25-1363): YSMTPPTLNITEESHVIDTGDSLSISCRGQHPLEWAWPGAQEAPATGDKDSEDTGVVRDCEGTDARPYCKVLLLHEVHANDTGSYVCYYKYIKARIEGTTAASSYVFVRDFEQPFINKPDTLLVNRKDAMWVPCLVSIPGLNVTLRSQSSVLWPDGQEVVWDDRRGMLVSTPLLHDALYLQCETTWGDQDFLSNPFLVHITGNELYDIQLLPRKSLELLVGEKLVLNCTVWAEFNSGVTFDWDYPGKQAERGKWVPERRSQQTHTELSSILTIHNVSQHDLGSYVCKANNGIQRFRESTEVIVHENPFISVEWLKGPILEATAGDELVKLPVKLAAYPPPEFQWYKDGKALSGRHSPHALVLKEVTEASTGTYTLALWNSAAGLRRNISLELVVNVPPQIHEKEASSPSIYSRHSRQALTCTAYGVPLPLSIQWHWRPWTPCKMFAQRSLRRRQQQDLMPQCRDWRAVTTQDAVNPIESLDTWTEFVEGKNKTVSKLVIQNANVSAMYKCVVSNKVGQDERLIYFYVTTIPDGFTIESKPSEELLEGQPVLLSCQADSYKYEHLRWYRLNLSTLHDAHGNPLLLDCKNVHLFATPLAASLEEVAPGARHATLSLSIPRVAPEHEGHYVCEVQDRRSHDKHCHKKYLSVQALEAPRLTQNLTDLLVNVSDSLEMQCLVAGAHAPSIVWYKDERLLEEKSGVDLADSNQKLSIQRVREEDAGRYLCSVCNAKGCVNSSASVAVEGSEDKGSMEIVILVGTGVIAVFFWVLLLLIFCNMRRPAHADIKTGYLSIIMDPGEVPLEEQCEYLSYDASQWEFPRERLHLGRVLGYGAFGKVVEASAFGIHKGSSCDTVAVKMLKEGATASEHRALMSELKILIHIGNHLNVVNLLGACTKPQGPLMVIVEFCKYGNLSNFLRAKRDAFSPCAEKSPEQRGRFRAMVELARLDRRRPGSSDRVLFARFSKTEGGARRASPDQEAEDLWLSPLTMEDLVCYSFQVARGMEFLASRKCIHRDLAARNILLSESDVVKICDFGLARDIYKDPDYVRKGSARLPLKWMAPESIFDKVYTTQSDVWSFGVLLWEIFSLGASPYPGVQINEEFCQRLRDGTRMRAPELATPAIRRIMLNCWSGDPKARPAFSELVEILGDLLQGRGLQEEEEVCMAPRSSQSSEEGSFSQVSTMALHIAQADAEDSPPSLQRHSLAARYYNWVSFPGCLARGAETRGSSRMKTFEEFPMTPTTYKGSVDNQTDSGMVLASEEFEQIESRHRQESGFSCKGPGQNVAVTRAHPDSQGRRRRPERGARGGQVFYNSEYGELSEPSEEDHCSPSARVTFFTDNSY
Another test addresses RSK2 (Homo sapiens, UniProt P51812). Kind of test: biochemical. Conditions: read-out: % enzyme activity, 1 μM; Run 1, Run 2.
In a further test the target is ROCK2 (Homo sapiens, UniProt O75116). To be noted: 1 μM; Run 1, Run 2.
The next test has as its target CDC7/DBF4 (Homo sapiens, UniProt O00311). Kind of test: biochemical. Conditions: read-out: % enzyme activity, 1 μM; Run 1, Run 2.
The target in another test is SLK/STK2 (Homo sapiens, UniProt Q9H2G2). To be noted: 1 μM; Run 1, Run 2.
The next test addresses CDK2/cyclin O (Homo sapiens, UniProt P24941). Briefly: biochemical. Conditions: read-out: % enzyme activity, 1 μM; Run 1, Run 2.
In a further test the target is BRK (Homo sapiens, UniProt Q13882). Kind of test: biochemical. To be noted: read-out: % enzyme activity, 1 μM; Run 1, Run 2.
For another test, the target named is CK2a (Homo sapiens, UniProt P68400). Briefly: biochemical. Conditions: read-out: % enzyme activity, 1 μM; Run 1, Run 2.
CK2a, sequence (P68400 whole entry): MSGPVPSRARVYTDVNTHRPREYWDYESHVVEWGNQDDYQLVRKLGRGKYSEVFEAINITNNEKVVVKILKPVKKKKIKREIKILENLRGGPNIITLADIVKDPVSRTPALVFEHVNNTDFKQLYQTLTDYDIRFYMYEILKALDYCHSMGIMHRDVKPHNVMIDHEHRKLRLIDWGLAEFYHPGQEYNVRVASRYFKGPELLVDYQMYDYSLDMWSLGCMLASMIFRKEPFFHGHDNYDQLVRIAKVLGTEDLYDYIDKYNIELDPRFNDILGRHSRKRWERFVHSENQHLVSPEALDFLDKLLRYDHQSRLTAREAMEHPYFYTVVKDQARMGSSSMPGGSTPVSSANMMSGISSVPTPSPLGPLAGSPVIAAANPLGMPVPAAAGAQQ
In a further test the target is T1, MST2/STK3 (Homo sapiens, UniProt Q13188).
T1 sequence (Q13188 1-491): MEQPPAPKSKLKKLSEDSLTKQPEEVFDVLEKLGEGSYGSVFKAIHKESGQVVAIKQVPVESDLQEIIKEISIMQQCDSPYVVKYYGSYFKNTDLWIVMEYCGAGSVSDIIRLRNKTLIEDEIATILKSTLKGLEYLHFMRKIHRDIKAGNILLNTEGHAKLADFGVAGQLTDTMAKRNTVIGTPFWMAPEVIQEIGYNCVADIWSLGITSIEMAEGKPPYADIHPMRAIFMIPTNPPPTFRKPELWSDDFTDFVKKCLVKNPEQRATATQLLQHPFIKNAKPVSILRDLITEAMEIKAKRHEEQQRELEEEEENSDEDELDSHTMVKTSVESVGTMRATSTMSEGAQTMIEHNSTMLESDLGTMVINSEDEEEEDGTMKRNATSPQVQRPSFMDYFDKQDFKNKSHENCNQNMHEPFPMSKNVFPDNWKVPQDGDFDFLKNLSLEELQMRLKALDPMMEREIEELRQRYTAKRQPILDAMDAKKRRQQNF
Conditions: 1 μM; Run 1, Run 2.

The next test concerns the target c-Kit (Homo sapiens, UniProt P10721). Briefly: biochemical. To be noted: read-out: % enzyme activity, 1 μM; Run 1, Run 2.
The target in a further test is PAK4 (Homo sapiens, UniProt O96013). Briefly: biochemical. Conditions: read-out: % enzyme activity, 1 μM; Run 1, Run 2.
In a further test the target is T2, NEK3 (Homo sapiens, UniProt P51956).
T2 sequence (P51956 1-506): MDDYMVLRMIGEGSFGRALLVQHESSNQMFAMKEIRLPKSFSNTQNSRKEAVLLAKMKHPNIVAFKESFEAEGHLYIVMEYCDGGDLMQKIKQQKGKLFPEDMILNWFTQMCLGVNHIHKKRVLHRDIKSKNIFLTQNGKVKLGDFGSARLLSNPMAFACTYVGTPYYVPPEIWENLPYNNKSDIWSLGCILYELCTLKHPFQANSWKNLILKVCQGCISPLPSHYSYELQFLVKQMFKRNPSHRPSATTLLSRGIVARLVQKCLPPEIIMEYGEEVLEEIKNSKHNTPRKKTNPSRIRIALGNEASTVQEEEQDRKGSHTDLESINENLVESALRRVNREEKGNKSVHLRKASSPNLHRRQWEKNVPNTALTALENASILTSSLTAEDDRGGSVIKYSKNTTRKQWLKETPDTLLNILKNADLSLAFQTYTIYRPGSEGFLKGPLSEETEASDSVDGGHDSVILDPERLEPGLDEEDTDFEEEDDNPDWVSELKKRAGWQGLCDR
Kind of test: biochemical. Conditions: read-out: % enzyme activity, 1 μM; Run 1, Run 2.

For a further test, the target named is PLK1 (Homo sapiens, UniProt P53350). Kind of test: biochemical. Conditions: read-out: % enzyme activity, 1 μM; Run 1, Run 2.
The target in the next test is T3, EPHB3 (Homo sapiens, UniProt P54753).
T3 sequence (P54753 34-998): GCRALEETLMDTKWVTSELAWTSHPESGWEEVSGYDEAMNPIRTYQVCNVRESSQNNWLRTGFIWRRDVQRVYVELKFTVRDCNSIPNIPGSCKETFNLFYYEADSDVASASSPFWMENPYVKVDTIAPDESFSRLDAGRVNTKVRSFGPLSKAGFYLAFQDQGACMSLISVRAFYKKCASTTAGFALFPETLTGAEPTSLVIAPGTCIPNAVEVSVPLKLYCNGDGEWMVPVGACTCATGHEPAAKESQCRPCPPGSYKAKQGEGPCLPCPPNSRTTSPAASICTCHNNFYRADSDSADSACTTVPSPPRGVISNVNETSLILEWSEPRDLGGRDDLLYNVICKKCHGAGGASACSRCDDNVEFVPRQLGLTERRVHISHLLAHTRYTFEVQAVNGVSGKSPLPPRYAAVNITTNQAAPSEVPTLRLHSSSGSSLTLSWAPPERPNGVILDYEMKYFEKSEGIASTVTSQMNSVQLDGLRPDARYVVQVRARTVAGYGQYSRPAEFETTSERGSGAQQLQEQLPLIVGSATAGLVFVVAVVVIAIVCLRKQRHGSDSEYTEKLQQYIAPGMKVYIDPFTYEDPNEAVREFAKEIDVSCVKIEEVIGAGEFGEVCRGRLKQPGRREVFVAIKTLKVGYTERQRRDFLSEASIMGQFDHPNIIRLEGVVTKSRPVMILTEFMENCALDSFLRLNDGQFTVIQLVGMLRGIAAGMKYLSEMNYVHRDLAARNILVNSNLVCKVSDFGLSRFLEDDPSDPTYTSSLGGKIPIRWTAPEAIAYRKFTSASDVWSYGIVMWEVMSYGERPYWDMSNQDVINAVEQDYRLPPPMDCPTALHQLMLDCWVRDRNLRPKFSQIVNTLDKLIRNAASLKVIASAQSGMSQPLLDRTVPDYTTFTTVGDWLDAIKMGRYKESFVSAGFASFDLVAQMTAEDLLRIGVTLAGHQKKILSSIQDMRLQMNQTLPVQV
Kind of test: biochemical. Conditions: read-out: % enzyme activity, 1 μM; Run 1, Run 2.

The target in the next test is MEKK1 (Homo sapiens, UniProt Q13233). Briefly: biochemical. To be noted: read-out: % enzyme activity, 1 μM; Run 1, Run 2.

ABL2/ARG, sequence (P42684 whole entry): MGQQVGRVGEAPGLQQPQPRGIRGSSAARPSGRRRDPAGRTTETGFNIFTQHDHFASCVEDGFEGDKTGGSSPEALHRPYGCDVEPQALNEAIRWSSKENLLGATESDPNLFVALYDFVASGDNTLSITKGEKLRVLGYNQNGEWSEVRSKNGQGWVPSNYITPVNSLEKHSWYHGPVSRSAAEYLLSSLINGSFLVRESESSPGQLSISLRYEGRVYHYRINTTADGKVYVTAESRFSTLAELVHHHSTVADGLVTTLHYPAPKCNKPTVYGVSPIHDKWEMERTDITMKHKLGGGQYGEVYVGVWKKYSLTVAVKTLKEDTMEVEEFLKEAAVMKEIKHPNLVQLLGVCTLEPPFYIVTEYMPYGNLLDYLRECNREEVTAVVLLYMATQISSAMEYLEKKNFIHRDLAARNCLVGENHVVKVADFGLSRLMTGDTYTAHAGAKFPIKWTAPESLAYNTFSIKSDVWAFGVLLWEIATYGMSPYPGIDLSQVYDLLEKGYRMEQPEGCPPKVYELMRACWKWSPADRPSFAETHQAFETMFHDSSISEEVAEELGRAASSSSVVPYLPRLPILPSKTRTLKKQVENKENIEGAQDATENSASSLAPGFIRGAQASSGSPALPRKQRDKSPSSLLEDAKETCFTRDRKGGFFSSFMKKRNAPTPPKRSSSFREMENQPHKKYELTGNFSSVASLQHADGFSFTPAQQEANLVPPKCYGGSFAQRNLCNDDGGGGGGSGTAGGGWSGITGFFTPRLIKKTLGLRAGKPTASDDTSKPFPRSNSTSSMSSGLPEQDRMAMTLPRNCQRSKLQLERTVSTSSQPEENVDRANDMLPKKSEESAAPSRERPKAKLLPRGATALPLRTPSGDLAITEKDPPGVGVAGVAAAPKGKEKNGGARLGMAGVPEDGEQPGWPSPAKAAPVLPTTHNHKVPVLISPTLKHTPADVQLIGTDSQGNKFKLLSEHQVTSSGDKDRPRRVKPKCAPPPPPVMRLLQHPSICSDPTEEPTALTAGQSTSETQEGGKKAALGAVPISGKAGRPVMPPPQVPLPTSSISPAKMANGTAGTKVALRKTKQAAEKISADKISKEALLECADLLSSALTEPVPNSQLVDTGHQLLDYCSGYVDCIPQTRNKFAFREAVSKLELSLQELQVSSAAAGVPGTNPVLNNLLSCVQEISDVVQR
CDC7/DBF4, sequence (O00311 whole entry): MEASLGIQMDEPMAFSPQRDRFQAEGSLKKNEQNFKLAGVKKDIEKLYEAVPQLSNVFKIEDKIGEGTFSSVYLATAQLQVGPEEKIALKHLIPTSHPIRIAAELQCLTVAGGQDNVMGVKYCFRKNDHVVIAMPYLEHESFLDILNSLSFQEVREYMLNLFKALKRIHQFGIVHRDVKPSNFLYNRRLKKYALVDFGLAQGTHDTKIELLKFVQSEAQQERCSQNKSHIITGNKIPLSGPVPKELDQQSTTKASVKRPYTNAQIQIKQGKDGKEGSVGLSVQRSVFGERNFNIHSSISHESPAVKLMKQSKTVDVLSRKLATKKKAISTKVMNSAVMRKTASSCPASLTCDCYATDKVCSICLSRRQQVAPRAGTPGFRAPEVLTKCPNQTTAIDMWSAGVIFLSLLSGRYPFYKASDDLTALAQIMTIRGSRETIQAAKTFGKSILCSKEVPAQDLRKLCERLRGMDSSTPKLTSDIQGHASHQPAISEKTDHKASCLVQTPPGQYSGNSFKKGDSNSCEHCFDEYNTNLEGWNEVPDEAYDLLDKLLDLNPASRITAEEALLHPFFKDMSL
CDC7/DBF4, sequence (Q9UBU7 whole entry partner): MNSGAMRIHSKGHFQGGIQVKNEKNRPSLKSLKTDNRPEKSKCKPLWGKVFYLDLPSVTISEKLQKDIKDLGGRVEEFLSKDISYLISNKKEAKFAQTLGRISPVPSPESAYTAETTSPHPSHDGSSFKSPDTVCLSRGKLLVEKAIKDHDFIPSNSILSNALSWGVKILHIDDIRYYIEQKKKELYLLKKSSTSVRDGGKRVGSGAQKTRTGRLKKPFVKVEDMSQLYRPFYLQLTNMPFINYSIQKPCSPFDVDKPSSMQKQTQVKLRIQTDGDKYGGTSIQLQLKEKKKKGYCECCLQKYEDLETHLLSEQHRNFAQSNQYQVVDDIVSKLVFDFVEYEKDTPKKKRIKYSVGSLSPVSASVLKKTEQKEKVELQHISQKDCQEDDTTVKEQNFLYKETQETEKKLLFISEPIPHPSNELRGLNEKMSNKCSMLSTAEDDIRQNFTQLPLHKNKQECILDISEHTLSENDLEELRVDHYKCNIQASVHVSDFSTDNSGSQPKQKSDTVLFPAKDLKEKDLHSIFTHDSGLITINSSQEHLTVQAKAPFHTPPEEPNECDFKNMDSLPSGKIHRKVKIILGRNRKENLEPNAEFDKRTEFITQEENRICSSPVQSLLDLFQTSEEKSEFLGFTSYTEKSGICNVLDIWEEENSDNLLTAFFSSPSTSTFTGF
RSK2, sequence (P51812 whole entry): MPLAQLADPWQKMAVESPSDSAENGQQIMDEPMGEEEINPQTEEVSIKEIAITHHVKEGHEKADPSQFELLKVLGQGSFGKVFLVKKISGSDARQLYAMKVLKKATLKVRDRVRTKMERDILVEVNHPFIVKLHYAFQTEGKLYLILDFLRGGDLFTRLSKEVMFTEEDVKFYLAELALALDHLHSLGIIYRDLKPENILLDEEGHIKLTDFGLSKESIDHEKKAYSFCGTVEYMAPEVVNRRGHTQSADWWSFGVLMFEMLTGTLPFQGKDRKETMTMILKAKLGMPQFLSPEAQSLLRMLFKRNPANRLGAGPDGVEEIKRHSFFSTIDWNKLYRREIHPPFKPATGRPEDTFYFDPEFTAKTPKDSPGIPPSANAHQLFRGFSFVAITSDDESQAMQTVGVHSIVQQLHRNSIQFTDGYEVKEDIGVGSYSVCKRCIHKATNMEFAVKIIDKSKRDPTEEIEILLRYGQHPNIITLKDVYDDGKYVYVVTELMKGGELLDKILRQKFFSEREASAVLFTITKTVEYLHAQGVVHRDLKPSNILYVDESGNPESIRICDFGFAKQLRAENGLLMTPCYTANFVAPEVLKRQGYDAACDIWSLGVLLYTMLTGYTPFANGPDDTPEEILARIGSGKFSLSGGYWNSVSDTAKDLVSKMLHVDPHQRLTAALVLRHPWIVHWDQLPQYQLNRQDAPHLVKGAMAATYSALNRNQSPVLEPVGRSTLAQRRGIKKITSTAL

`COc1cc(-c2cncc(-c3ccc(N4CCN(C)CC4)cc3)c2C)cc(F)c1C(N)=O` [Compound 26a, 2-Fluoro-6-methoxy-4-(4-methyl-5-(4-(4-methylpiperazin-1-yl)phenyl)pyridin-3-yl)benzamide]: the remaining activity at 1 µM at ABL2/ARG came to 97.3%; on FLT4/VEGFR3, 98.4%; on RSK2 it was 101%; on CDC7/DBF4, 92.2%; at CDK2/cyclin O, 95.1%; on BRK, 58.3%. The remaining activity at 1 µM was determined as 92.5% at CK2a; 74.1% on c-Kit; 98.5% on PAK4; 88.3% on NEK3; 92.4% at PLK1; 95.5% at EPHB3. Besides, on MEKK1, the remaining activity at 1 µM was 94.3%. Further, the “% enzyme activity” value at ROCK2 is on record as 115.13%; at SLK/STK2 it was 96.16%; at MST2/STK3 it was 93.91%.

`COc1cc(-c2cncc(-c3ccc(N4C[C@@H](C)N(C)[C@@H](C)C4)cc3)c2C)cc(F)c1C(N)=O` [Compound 26c, 2-Fluoro-6-methoxy-4-(4-methyl-5-(4-((3R,5S)-3,4,5-trimethylpiperazin-1-yl)phenyl)pyridin-3-yl)benzamide]: the remaining activity at 1 µM on ABL2/ARG was found to be 97.1%; on FLT4/VEGFR3, 97.1%; at RSK2, 103%; at CDC7/DBF4 it was 94.2%; at CDK2/cyclin O it was 92.7%; on BRK, 73.9%. Further, the remaining activity at 1 µM at CK2a was 87.2%; at c-Kit, 75.8%; at PAK4, 99.9%; on NEK3, 96.2%; at PLK1 it was 92.7%; at EPHB3, 98.9%. Further, the remaining activity at 1 µM on MEKK1 came out at 97.7%. In addition, the “% enzyme activity” value at ROCK2 worked out at 93.98%; at SLK/STK2, 100.64%; on MST2/STK3, 100.46%.
